Legend:
[1] = tested on: Rattus norvegicus; assay: Effect on behavioural activity in po dosed rat assessed as cocaine-induced lever response pretreated with cocaine by drug-discrimination studies; assay type: functional
[2] = tested on: Rattus norvegicus; assay: Effect on behavioural activity in ip dosed rat assessed as cocaine-induced lever response pretreated with cocaine by drug-discrimination studies; assay type: functional
[3] = tested on: Rattus norvegicus; assay: Effect on behavioural activity in rat assessed as cocaine-induced lever response at 25 mg/kg, po pretreated with cocaine for 90 mins by drug-discrimination studies; assay type: functional
[4] = tested on: Rattus norvegicus; assay: Effect on behavioural activity in rat assessed as cocaine-induced lever response at 5 mg/kg, ip pretreated with cocaine for 30 mins by drug-discrimination studies; assay type: functional; settings: route intraperitoneal
[5] = tested on: Rattus norvegicus; assay: Effect on behavioural activity in rat assessed as cocaine-induced lever response at 25 mg/kg, po pretreated with cocaine for 360 mins by drug-discrimination studies; assay type: functional
[6] = tested on: Rattus norvegicus; assay: Effect on behavioural activity in rat assessed as cocaine-induced lever response at 25 mg/kg, po pretreated with cocaine for 180 mins by drug-discrimination studies; assay type: functional
[7] = tested on: Rattus norvegicus; assay: Effect on behavioural activity in rat assessed as cocaine-induced lever response at 1 mg/kg, ip pretreated with cocaine for 30 mins by drug-discrimination studies; assay type: functional; settings: route intraperitoneal
[8] = tested on: Rattus norvegicus; assay: Effect on behavioural activity in rat assessed as cocaine-induced lever response at 10 mg/kg, ip pretreated with cocaine for 30 mins by drug-discrimination studies; assay type: functional; settings: route intraperitoneal
[9] = tested on: Rattus norvegicus; assay: Effect on behavioural activity in rat assessed as cocaine-induced lever response at 2.5 mg/kg, po pretreated with cocaine for 360 mins by drug-discrimination studies; assay type: functional
[10] = tested on: Rattus norvegicus; assay: Effect on behavioural activity in rat assessed as cocaine-induced lever response at 25 mg/kg, ip pretreated with cocaine for 30 mins by drug-discrimination studies; assay type: functional; settings: route intraperitoneal
[11] = tested on: Rattus norvegicus; assay: Effect on behavioural activity in rat assessed as cocaine-induced lever response at 10 mg/kg, po pretreated with cocaine for 45 mins by drug-discrimination studies; assay type: functional
[12] = tested on: Rattus norvegicus; assay: Effect on behavioural activity in rat assessed as cocaine-induced lever response at 2.5 mg/kg, po pretreated with cocaine for 45 mins by drug-discrimination studies; assay type: functional
[13] = tested on: Rattus norvegicus; assay: Effect on behavioural activity in rat assessed as cocaine-induced lever response at 2.5 mg/kg, po pretreated with cocaine for 180 mins by drug-discrimination studies; assay type: functional
[14] = tested on: Rattus norvegicus; assay: Effect on behavioural activity in rat assessed as cocaine-induced lever response at 10 mg/kg, po pretreated with cocaine for 180 mins by drug-discrimination studies; assay type: functional
[15] = tested on: Rattus norvegicus; assay: Effect on behavioural activity in rat assessed as cocaine-induced lever response at 5 mg/kg, po pretreated with cocaine for 360 mins by drug-discrimination studies; assay type: functional
[16] = tested on: Rattus norvegicus; assay: Effect on behavioural activity in rat assessed as cocaine-induced lever response at 2.5 mg/kg, ip pretreated with cocaine for 30 mins by drug-discrimination studies; assay type: functional; settings: route intraperitoneal
[17] = tested on: Rattus norvegicus; assay: Effect on behavioural activity in rat assessed as cocaine-induced lever response at 10 mg/kg, po pretreated with cocaine for 360 mins by drug-discrimination studies; assay type: functional
[18] = tested on: Rattus norvegicus; assay: Effect on behavioural activity in rat assessed as cocaine-induced lever response at 5 mg/kg, po pretreated with cocaine for 90 mins by drug-discrimination studies; assay type: functional
[19] = tested on: Rattus norvegicus; assay: Effect on behavioural activity in rat assessed as cocaine-induced lever response at 5 mg/kg, po pretreated with cocaine for 180 mins by drug-discrimination studies; assay type: functional
[20] = tested on: Mus musculus; assay: Antidepressant activity in ip dosed mouse assessed as duration of locomotor activity; assay type: functional
[21] = tested on: Rattus norvegicus; assay: Effect on behavioural activity in rat assessed as cocaine-induced lever response at 25 mg/kg, po pretreated with cocaine for 45 mins by drug-discrimination studies; assay type: functional
[22] = tested on: Mus musculus; assay: Antidepressant activity in ip dosed mouse assessed as stimulation of locomotor activity; assay type: functional
[23] = tested on: Rattus norvegicus; assay: Effect on behavioural activity in rat assessed as cocaine-induced lever response at 5 mg/kg, po pretreated with cocaine for 45 mins by drug-discrimination studies; assay type: functional
[24] = tested on: Mus musculus; assay: Antidepressant activity in ip dosed mouse assessed as stimulation of locomotor activity relative to cocaine; assay type: functional
[25] = tested on: Rattus norvegicus; assay: Effect on behavioural activity in rat assessed as cocaine-induced lever response at 10 mg/kg, po pretreated with cocaine for 90 mins by drug-discrimination studies; assay type: functional
[26] = tested on: Rattus norvegicus; assay: Effect on behavioural activity in rat assessed as cocaine-induced lever response at 2.5 mg/kg, po pretreated with cocaine for 90 mins by drug-discrimination studies; assay type: functional
[27] = tested on: Mus musculus; assay: Antidepressant activity in ip dosed mouse assessed as time to reach peak stimulation of locomotor activity; assay type: functional
[28] = tested on: Rattus norvegicus; assay: Effect on behavioural activity in rat assessed as cocaine-induced lever response at 50 mg/kg, po pretreated with cocaine for 180 mins by drug-discrimination studies; assay type: functional
[29] = tested on: Rattus norvegicus; assay: Effect on behavioural activity in rat assessed as cocaine-induced lever response at 50 mg/kg, po pretreated with cocaine for 45 mins by drug-discrimination studies; assay type: functional
[30] = tested on: Rattus norvegicus; assay: Effect on behavioural activity in rat assessed as cocaine-induced lever response at 50 mg/kg, po pretreated with cocaine for 90 mins by drug-discrimination studies; assay type: functional
[31] = tested on: Rattus norvegicus; assay: Effect on behavioural activity in rat assessed as cocaine-induced lever response at 50 mg/kg, po pretreated with cocaine for 360 mins by drug-discrimination studies; assay type: functional
[32] = tested on: Rattus norvegicus; assay: Effect on behavioural activity in rat assessed as cocaine-induced lever response at 1 mg/kg, po pretreated with cocaine for 180 mins by drug-discrimination studies; assay type: functional
[33] = tested on: Rattus norvegicus; assay: Effect on behavioural activity in rat assessed as cocaine-induced lever response at 5 mg/kg, ip pretreated with cocaine for 15 mins by drug-discrimination studies; assay type: functional; settings: route intraperitoneal
[34] = tested on: Rattus norvegicus; assay: Effect on behavioural activity in rat assessed as cocaine-induced lever response at 1 mg/kg, po pretreated with cocaine for 360 mins by drug-discrimination studies; assay type: functional
[35] = tested on: Rattus norvegicus; assay: Effect on behavioural activity in rat assessed as cocaine-induced lever response at 25 mg/kg, ip pretreated with cocaine for 15 mins by drug-discrimination studies; assay type: functional; settings: route intraperitoneal
[36] = target: Sodium-dependent serotonin transporter (Homo sapiens, UniProt P31645); assay: biochemical; assay type: cell-based, HEK293
Sodium-dependent serotonin transporter, sequence (P31645 whole entry): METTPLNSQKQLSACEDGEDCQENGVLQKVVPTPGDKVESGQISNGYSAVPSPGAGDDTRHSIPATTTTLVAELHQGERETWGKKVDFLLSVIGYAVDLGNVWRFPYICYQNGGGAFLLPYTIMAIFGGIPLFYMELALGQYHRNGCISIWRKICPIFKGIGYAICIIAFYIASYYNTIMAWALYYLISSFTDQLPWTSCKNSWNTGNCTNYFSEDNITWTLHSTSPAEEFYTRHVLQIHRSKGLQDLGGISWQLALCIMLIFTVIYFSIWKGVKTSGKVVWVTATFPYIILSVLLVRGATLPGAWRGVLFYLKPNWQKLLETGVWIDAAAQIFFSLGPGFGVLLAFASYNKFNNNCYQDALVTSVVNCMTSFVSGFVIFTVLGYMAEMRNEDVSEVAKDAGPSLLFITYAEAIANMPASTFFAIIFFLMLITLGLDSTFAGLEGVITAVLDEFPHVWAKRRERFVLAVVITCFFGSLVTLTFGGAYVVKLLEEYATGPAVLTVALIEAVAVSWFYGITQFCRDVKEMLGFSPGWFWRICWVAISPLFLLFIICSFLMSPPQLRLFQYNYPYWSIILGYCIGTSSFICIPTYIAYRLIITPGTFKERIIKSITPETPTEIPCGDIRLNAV

[37] = tested on: Rattus norvegicus; assay: Effect on behavioural activity in rat assessed as cocaine-induced lever response at 100 mg/kg, ip pretreated with cocaine for 15 mins by drug-discrimination studies; assay type: functional; settings: route intraperitoneal
[38] = tested on: Rattus norvegicus; assay: Effect on behavioural activity in rat assessed as cocaine-induced lever response at 1 mg/kg, po pretreated with cocaine for 90 mins by drug-discrimination studies; assay type: functional
[39] = tested on: Rattus norvegicus; assay: Effect on behavioural activity in rat assessed as cocaine-induced lever response at 1 mg/kg, po pretreated with cocaine for 41 mins by drug-discrimination studies; assay type: functional
[40] = tested on: Rattus norvegicus; assay: Effect on behavioural activity in rat assessed as cocaine-induced lever response at 10 mg/kg, ip pretreated with cocaine for 15 mins by drug-discrimination studies; assay type: functional; settings: route intraperitoneal
[41] = target: Sodium-dependent noradrenaline transporter (Homo sapiens, UniProt P23975); assay: Displacement of [125I]RTI55 from cloned human NET expressed in HEK293 cells; assay type: cell-based
Sodium-dependent noradrenaline transporter, sequence (P23975 whole entry): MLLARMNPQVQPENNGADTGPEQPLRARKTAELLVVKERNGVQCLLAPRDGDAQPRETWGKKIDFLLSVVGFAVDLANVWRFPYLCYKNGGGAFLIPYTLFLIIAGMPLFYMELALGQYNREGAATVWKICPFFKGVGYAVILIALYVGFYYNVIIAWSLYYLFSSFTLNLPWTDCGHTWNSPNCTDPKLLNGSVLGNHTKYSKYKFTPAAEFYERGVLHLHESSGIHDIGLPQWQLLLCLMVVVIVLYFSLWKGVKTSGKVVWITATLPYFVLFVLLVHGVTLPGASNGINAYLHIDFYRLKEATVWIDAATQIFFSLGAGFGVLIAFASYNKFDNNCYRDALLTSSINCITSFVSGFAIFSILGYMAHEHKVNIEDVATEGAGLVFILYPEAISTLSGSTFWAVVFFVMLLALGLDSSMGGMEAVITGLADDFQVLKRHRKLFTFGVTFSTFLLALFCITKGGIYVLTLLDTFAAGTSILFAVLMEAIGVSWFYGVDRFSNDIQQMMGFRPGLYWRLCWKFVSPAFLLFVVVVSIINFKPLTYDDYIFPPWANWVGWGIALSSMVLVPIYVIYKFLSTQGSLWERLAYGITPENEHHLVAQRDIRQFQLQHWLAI

[42] = tested on: Rattus norvegicus; assay: Effect on behavioural activity in rat assessed as cocaine-induced lever response at 2.5 mg/kg, ip pretreated with cocaine for 15 mins by drug-discrimination studies; assay type: functional; settings: route intraperitoneal
[43] = tested on: Rattus norvegicus; assay: Effect on behavioural activity in rat assessed as cocaine-induced lever response at 1 mg/kg, ip pretreated with cocaine for 15 mins by drug-discrimination studies; assay type: functional; settings: route intraperitoneal
[44] = tested on: Rattus norvegicus; assay: Effect on behavioural activity in rat assessed as cocaine-induced lever response at 50 mg/kg, ip pretreated with cocaine for 15 mins by drug-discrimination studies; assay type: functional; settings: route intraperitoneal

CCCC(NC(C)(C)C)C(=O)c1ccc(Cl)c(Cl)c1 (configuration not stated)
ED50 [1]: 22.8 mg/kg
ED50 [2]: 3.9 mg/kg
Activity [3]: 84%
Activity [4]: 33.3%
Activity [5]: 0%
Activity [6]: 17%
Activity [7]: 0%
Activity [8]: 33.3%
Activity [9]: 0%
Activity [10]: 100%
Activity [11]: 33%
Activity [12]: 17%
Activity [13]: 0%
Activity [14]: 5%
Activity [15]: 0%
Activity [16]: 41.8%
Activity [17]: 0%
Activity [18]: 13%
Activity [19]: 0%
Time [20]: 470 min
Activity [21]: 58%
ED50 [22]: 38 mg/kg
Activity [23]: 0%
Activity [24]: 93%
Activity [25]: 0%
Activity [26]: 0%
Time to peak locomotor stimulation [27]: 0 min

CCC(NC(C)(C)C)C(=O)c1ccc(Cl)c(Cl)c1 (configuration not stated)
ED50 [1]: 15.2 mg/kg
ED50 [2]: 6.3 mg/kg
Activity [3]: 33%
Activity [4]: 16.7%
Activity [5]: 33%
Activity [6]: 2%
Activity [7]: 0%
Activity [9]: 17%
Activity [10]: 100%
Activity [28]: 50%
Activity [11]: 34%
Activity [12]: 33%
Activity [13]: 50%
Activity [14]: 0%
Activity [29]: 83%
Activity [15]: 0%
Activity [16]: 33.3%
Activity [17]: 2%
Activity [30]: 67%
Activity [19]: 0%
Time [20]: 60 min
Activity [21]: 50%
ED50 [22]: 38 mg/kg
Activity [23]: 17%
Activity [24]: 69%
Activity [31]: 16%
Activity [25]: 0%
Activity [26]: 17%
Time to peak locomotor stimulation [27]: 0 min

CC(NC(C)(C)C)C(=O)c1ccc(Cl)cc1 (configuration not stated)
Activity [32]: 0%
Activity [33]: 0.1%
Activity [34]: 0%
Activity [35]: 18.1%
Ki [36]: > 10 µM
Activity [37]: 33.3%
Activity [38]: 0%
Activity [39]: 0%
Activity [40]: 32.7%
Ki [41]: > 10 µM

CC(NC(C)(C)C)C(=O)c1cccc(Cl)c1 (configuration not stated) [BUPROPION]
ED50 [1]: 22.8 mg/kg
Activity [3]: 0%
Activity [33]: 0%
Activity [5]: 1%
Activity [6]: 22%
Activity [42]: 0.7%
Activity [28]: 17%
Activity [11]: 17%
Activity [43]: 24.1%
Activity [35]: 66.3%
Activity [14]: 0%
Activity [29]: 83%
Activity [44]: 66.7%
Activity [40]: 67.1%
Activity [17]: 0%
Activity [30]: 50%
Activity [18]: 0%
Activity [19]: 2.5%
Time [20]: 130 min
Activity [21]: 50%
ED50 [22]: 5.5 mg/kg
Activity [23]: 33%
Activity [24]: 87%
Activity [31]: 0%
Activity [25]: 1%
Time to peak locomotor stimulation [27]: 0 min

From ChEMBL document CHEMBL1156106 (J Med Chem, 2009)
